In this assay the test system is P388 leukemia ip, CD2F1 mice, survival T/C. In words: NCI In Vivo Anticancer Drug Screen. Data for tumor model P388 Leukemia (intraperitoneal) in CD2F1 (CDF1) mice. Particulars: endpoint: median survival time, higher = longer survival. The method in brief: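 Mice carrying the transplanted tumor received test compound or vehicle. Survival was recorded in each group, and the value is the treated-group measurement divided by that of the vehicle-treated control group.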

The mark [1] stands for this setting: dose: 50.0 mg/kg/injection, schedule: Q01DX009 (ip), vehicle: saline with Tween-80.
Where [2] appears, read: dose: 100.0 mg/kg/injection, schedule: Q01DX009 (ip), vehicle: saline with Tween-80.
The mark [3] stands for this setting: dose: 200.0 mg/kg/injection, schedule: Q01DX009 (ip), vehicle: saline with Tween-80.
Setting [4] is: dose: 50.0 mg/kg/injection, schedule: Q01DX009 (ip), vehicle: saline.
The mark [5] stands for this setting: dose: 60.0 mg/kg/injection, schedule: Q01DX005 (ip), vehicle: Klucel (hydroxypropylcellulose) (HPC).
Setting [6] is: dose: 120.0 mg/kg/injection, schedule: Q01DX005 (ip), vehicle: Klucel (hydroxypropylcellulose) (HPC).
The mark [7] stands for this setting: dose: 240.0 mg/kg/injection, schedule: Q01DX005 (ip), vehicle: Klucel (hydroxypropylcellulose) (HPC).
Setting [8] is: dose: 25.0 mg/kg/injection, schedule: Q01DX009 (ip), vehicle: saline with Tween-80.
Setting [9] is: dose: 50.0 mg/kg/injection, schedule: Q04DX003 (ip), vehicle: Klucel (hydroxypropylcellulose) (HPC).
The mark [10] stands for this setting: dose: 100.0 mg/kg/injection, schedule: Q04DX003 (ip), vehicle: Klucel (hydroxypropylcellulose) (HPC).
Where [11] appears, read: dose: 25.0 mg/kg/injection, schedule: Q01DX005 (ip), vehicle: saline with Tween-80.
[12] abbreviates: dose: 50.0 mg/kg/injection, schedule: Q01DX005 (ip), vehicle: Klucel (hydroxypropylcellulose) (HPC).
Setting [13] is: dose: 100.0 mg/kg/injection, schedule: Q01DX005 (ip), vehicle: Klucel (hydroxypropylcellulose) (HPC).
The mark [14] stands for this setting: dose: 200.0 mg/kg/injection, schedule: Q01DX005 (ip), vehicle: Klucel (hydroxypropylcellulose) (HPC).

SMILES strings stand for the structures. Values joined by “and” are separate entries in the source; they are usually repeats but may differ in a detail not shown here. Identical values can stand only once. Inconclusive results and toxic doses are left out.

On to `CCCCCCCCCCCCCCCC[N+](C)(C)CCSC(C)=O`, for which the T/C by setting is: (dose: 0.78 mg/kg/injection, schedule: Q01DX009 (ip), vehicle: acetone) 100 % of control; (dose: 1.56 mg/kg/injection, schedule: Q01DX009 (ip), vehicle: acetone) 104 % of control; (dose: 3.12 mg/kg/injection, schedule: Q01DX009 (ip), vehicle: acetone) 104 % of control; (dose: 6.25 mg/kg/injection, schedule: Q01DX009 (ip), vehicle: acetone) 107 % of control.
`OC1(c2ccccc2)c2cccc(Cl)c2C(O)(c2ccccc2)c2c(Cl)cccc21` (stereo not given): the T/C under setting [1] was 99 % of control, the T/C under setting [2] was 99 % of control and the T/C under setting [3] is 97 % of control.
As to `[Co].[N-]=C=S.[N-]=C=S.[N-]=C=S.[N-]=C=S`, the T/C (dose: 9.5 mg/kg/injection, schedule: Q01DX009 (ip), vehicle: saline) is 101 % of control; the T/C (dose: 19.0 mg/kg/injection, schedule: Q01DX009 (ip), vehicle: saline) was 93 % of control; the T/C (dose: 38.0 mg/kg/injection, schedule: Q01DX009 (ip), vehicle: saline) is 104 % of control; the T/C under setting [4] is 161 % of control.
Take `COc1ccc(Br)cc1C1SCC(=O)N1c1nncs1` (stereo not given): the T/C was 101 % of control under setting [5], 101 % of control under setting [6] and 93 % of control under setting [7].
Turning to `O=C1CSC(c2cc([N+](=O)[O-])ccc2Cl)N1c1nncs1` (stereo not given), the T/C runs as follows: under setting [5], 108 % of control; under setting [6], 105 % of control; under setting [7], 98 % of control.
As to `COc1cc2c(c3c1OCO3)-c1ccc(OC)c(=O)cc1C(NC(C)=O)CC2` (stereo not given), the T/C runs as follows: (dose: 1.25 mg/kg/injection, schedule: Q01DX009 (ip), vehicle: Klucel (hydroxypropylcellulose) (HPC)) 108 % of control; (dose: 2.5 mg/kg/injection, schedule: Q01DX009 (ip), vehicle: Klucel (hydroxypropylcellulose) (HPC)) 104 % of control; (dose: 5.0 mg/kg/injection, schedule: Q01DX009 (ip), vehicle: Klucel (hydroxypropylcellulose) (HPC)) 111 % of control; (dose: 10.0 mg/kg/injection, schedule: Q01DX009 (ip), vehicle: Klucel (hydroxypropylcellulose) (HPC)) 116 % of control; (dose: 20.0 mg/kg/injection, schedule: Q01DX009 (ip), vehicle: Klucel (hydroxypropylcellulose) (HPC)) 118 % of control.
In the case of `COc1cc2cc[n+]3c(c2cc1OC)-c1c2cc(OC)c(OC)cc2cc[n+]1CC3`, the T/C is 100 % of control (dose: 12.5 mg/kg/injection, schedule: Q01DX009 (ip), vehicle: saline with Tween-80) and 97 % of control under setting [8].
Regarding `O=C1OCc2nc3ccccc3cc21`, the T/C under setting [9] was 100 % of control; the T/C under setting [10] was 98 % of control; the T/C (dose: 200.0 mg/kg/injection, schedule: Q04DX003 (ip), vehicle: Klucel (hydroxypropylcellulose) (HPC)) was 106 % of control.
As for `CCOC(=O)C(Cc1ccccc1[N+](=O)[O-])(NC(C)=O)C(=O)OCC`, the T/C by setting is: under setting [1], 94 % of control; under setting [2], 93 % of control; under setting [3], 100 % of control; (dose: 400.0 mg/kg/injection, schedule: Q01DX009 (ip), vehicle: saline with Tween-80) 103 % of control.
On to `C1=Cc2ccccc2C(c2ccccc2)S1` (stereo not given), for which the T/C was 98 % of control under setting [4]; 88 % of control (dose: 100.0 mg/kg/injection, schedule: Q01DX009 (ip), vehicle: saline); 93 % of control (dose: 200.0 mg/kg/injection, schedule: Q01DX009 (ip), vehicle: saline); 89 % of control (dose: 400.0 mg/kg/injection, schedule: Q01DX009 (ip), vehicle: saline).
As to `COc1ccc(/C(C#N)=C\c2ccnc3ccccc23)c(OC)c1`, the T/C was 87 % of control (dose: 12.5 mg/kg/injection, schedule: Q01DX009 (ip), vehicle: other); 91 % of control (dose: 25.0 mg/kg/injection, schedule: Q01DX009 (ip), vehicle: other); 87 % of control (dose: 50.0 mg/kg/injection, schedule: Q01DX009 (ip), vehicle: other); 87 % of control (dose: 100.0 mg/kg/injection, schedule: Q01DX009 (ip), vehicle: other); 87 % of control (dose: 200.0 mg/kg/injection, schedule: Q01DX009 (ip), vehicle: other).
`ONC1CC(NO)CC(NO)C1` (stereo not given): the T/C (dose: 100.0 mg/kg/injection, schedule: Q01DX001 (ip), vehicle: saline) was 117 % of control and the T/C (dose: 200.0 mg/kg/injection, schedule: Q01DX001 (ip), vehicle: saline) was 110 % of control.
On to `CCCC(C(CC)CN(C)C)N(C)C` (stereo not given), for which the T/C is 101 % of control under setting [1] and 93 % of control under setting [2].
As for `Clc1ccc(-n2nnc3cc(Cl)ccc32)c(Cl)c1`, the T/C by setting is: (dose: 6.25 mg/kg/injection, schedule: Q01DX005 (ip), vehicle: saline with Tween-80) 86 % of control and 96 % of control; (dose: 12.5 mg/kg/injection, schedule: Q01DX005 (ip), vehicle: saline with Tween-80) 94 % of control; under setting [11], 90 % of control and 91 % of control; under setting [8], 103 % of control; under setting [1], 97 % of control; under setting [2], 101 % of control.
With `CN1CC(C(=O)NC2(C)OC3(O)C4CCCN4C(=O)C(Cc4ccccc4)N3C2=O)C=C2c3cccc4[nH]cc(c34)CC21` (stereo not given), the T/C reads like this: under setting [12], 91 % of control; under setting [13], 87 % of control; under setting [14], 102 % of control.
On to `C#CC(C)(C)Oc1ccc2c(=O)c(-c3ccc(OC)c(OC)c3)coc2c1`, for which the T/C is 90 % of control (dose: 60.0 mg/kg/injection, schedule: Q01DX005 (ip), vehicle: saline with Tween-80); 92 % of control (dose: 120.0 mg/kg/injection, schedule: Q01DX005 (ip), vehicle: saline with Tween-80); 89 % of control (dose: 240.0 mg/kg/injection, schedule: Q01DX005 (ip), vehicle: saline with Tween-80).
As to `CC1/C(=N/Nc2ccc([N+](=O)[O-])cc2)CC2C3(C)CCC2(C(C)C(=O)O)C(=O)C13` (stereo not given), the T/C (dose: 25.0 mg/kg/injection, schedule: Q04DX003 (ip), vehicle: Klucel (hydroxypropylcellulose) (HPC)) was 92 % of control; the T/C under setting [9] was 94 % of control; the T/C under setting [10] is 88 % of control and 94 % of control; the T/C (dose: 400.0 mg/kg/injection, schedule: Q04DX003 (ip), vehicle: Klucel (hydroxypropylcellulose) (HPC)) is 90 % of control.
Take `CN(C)C1=Nc2ccccc2NC(=O)C1`: the T/C runs as follows: under setting [12], 105 % of control; under setting [13], 105 % of control; under setting [14], 105 % of control.
As for `COc1cc2c(cc1C(C)c1ccc(OC(C)C)cc1)OCO2` (stereo not given), the T/C is 103 % of control under setting [11]; 98 % of control (dose: 50.0 mg/kg/injection, schedule: Q01DX005 (ip), vehicle: saline with Tween-80); 100 % of control (dose: 100.0 mg/kg/injection, schedule: Q01DX005 (ip), vehicle: saline with Tween-80); 98 % of control (dose: 200.0 mg/kg/injection, schedule: Q01DX005 (ip), vehicle: saline with Tween-80).
Consider `Cc1nc2c(cnn2C)c(=O)n1C(C)C`, for which the T/C is 104 % of control under setting [12], 112 % of control under setting [13] and 111 % of control under setting [14].
Turning to `CC(=O)O[C@@H]1C[C@@](C)(C(=O)[C@H]2COC(=O)C2)[C@@H]2CC(=O)O[C@@H]3C[C@H]4[C@H](C)C[C@H](O)C(=O)[C@]4(C)[C@@H]1[C@]23C`, the T/C runs as follows: (dose: 3.0 mg/kg/injection, schedule: Q01DX009 (ip), vehicle: saline + alcohol) 98 % of control; (dose: 6.0 mg/kg/injection, schedule: Q01DX009 (ip), vehicle: saline + alcohol) 116 % of control; (dose: 12.0 mg/kg/injection, schedule: Q01DX009 (ip), vehicle: saline + alcohol) 107 % of control; (dose: 24.0 mg/kg/injection, schedule: Q01DX009 (ip), vehicle: saline + alcohol) 100 % of control; (dose: 48.0 mg/kg/injection, schedule: Q01DX009 (ip), vehicle: saline + alcohol) 107 % of control.

Values taken from PubChem BioAssay AID330 (DTP/NCI, 2004).
